pIC50: −log10 of the molar value. Calls of active or inactive are those of the source. The calls are words filed in the database; no cut-off is given here.
Columns and labels:
Mus musculus [1] = assay: Toxicity in Nu/Nu intratumorally dosed mouse xenografted with human […] cells assessed as effect on body weight administered as single dose starting from day 18 post tumor injection and measured for 50 days post dose using avidinOX conjugated compound; format: organism-based; conditions: in vivo, other, 1200 h
A-431 = assay: Antiproliferative activity against human A431 cells; format: functional, cell-based
SK-OV-3 [2] = assay: Antitumor activity against human SKOV3 cells xenografted in intratumorally dosed Nu/Nu mouse assessed as inhibition of tumor volume administered as single dose and monitored for 2 weeks starting from day 18 post tumor injection and measured after 32 days post dose; format: functional
Mus musculus [3] = assay: Toxicity in Nu/Nu intratumorally dosed mouse xenografted with human […] cells assessed as effect on body weight administered as single dose starting from day 18 post tumor injection and measured for 50 days post dose; format: organism-based; conditions: in vivo, other, 1200 h
[4] = biological target: Streptavidin (Streptomyces avidinii) (UniProt P22629); assay: Binding affinity to Streptomyces avidinii streptavidin assessed as reduction in biotinylated-alkaline phosphatase (unknown origin) binding at 1 to 1000 uM by ELISA
Chain of Streptavidin (Streptomyces avidinii) (P22629 whole entry): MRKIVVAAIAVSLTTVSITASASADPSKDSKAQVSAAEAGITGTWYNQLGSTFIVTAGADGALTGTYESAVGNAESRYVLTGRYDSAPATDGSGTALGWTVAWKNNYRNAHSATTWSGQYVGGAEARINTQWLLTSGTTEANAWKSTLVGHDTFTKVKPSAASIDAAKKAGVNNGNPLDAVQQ

SK-OV-3 [5] = assay: Antitumor activity against human SKOV3 cells xenografted in intratumorally dosed Nu/Nu mouse assessed as inhibition of tumor volume administered as single dose and monitored for 2 weeks starting from day 18 post tumor injection and measured after 32 days post dose using avidinOX conjugated compound; format: functional

For CC[C@@]1(OC(=O)OCCSSCCNC(=O)CCCC[C@@H]2SC[C@@H]3NC(=O)N[C@@H]32)C(=O)OCc2c1cc1n(c2=O)Cc2c-1nc1ccccc1c2/C=N/OC(C)(C)C, the Activity (Mus musculus [1]) was “Non-Toxic”, the pIC50 (A-431) was 8.04 and the TGI (SK-OV-3 [2]) was 48%. The Activity (Mus musculus [3]) was “Non-Toxic”, the Activity [4] was “Active” and the TGI (SK-OV-3 [5]) was 68%.
